Assays:
[1] = test system: PC3-M-luc cells; experiment: PCa orthotopic implantation, primary tumor growth and lung metastasis; type: in vivo, mice; conditions: orthotopic PC3-M-luc, 150 mg/kg KBU2046 daily
Experimental: To assess the efficacy of a spectrum of docetaxel concentrations, mice received orthotopic implants of PC3-M-luc cells, were treated with 0, 10 or 20 mg/kg docetaxel, and tumor growth monitored with weekly IVIS imaging. […] Subsequently, mice with orthotopic implants of PC3-M-luc cells were treated with docetaxel, KBU2046, docetaxel+KBU2046 or vehicle, as denoted, and effects on primary tumor growth and lung metastasis quantified (FIGS. 2A, 2B, and 2C).
Cohorts of N=10 mice bearing orthotopic implants of PC3-M-luc cells were treated daily with 150 mg/kg KUB2046 (46), intraperitoneal docetaxel 7.5 mg/kg weekly (doc), the combination (doc+46), or with oral and intraperitoneal vehicle (CO). KBU2046 treatment began 3 days before implantation and docetaxel began 1 week after. (A) Lung metastasis measured by qPCR for human Alu sequences, expressed as percent control (B) Weekly IVIS imaging of tumor. (C) Tumor weight. * denotes P<0.05 for differences between cohorts denoted by bars. All data are mean±SEM.
PCa orthotopic implantation: Orthotopic implantation of 2.5×10^5 PC3M-luc into 7-8 week old male athymic mice was performed as previously described by us (5, 52 Xu et al., above; and Pavese et al., J Vis Exp, e50873 (2013)). Daily oral gavage treatment with 150 mg/kg KBU2046 or was initiated 3 days prior to implantation and continued throughout the duration of the study. Weekly IP injections with 7.5 mg/kg docetaxel or control were administered beginning one week post implantation. Primary tumor out growth was monitored via weekly IVIS imaging. At the completion of the study the primary tumor was resected and weighed and lungs were resected and snap frozen. To determine the human PCa metastatic burden in each mouse lung, the snap frozen tissue was pulverized, DNA isolated and Alu-sequencing performed as previously described (19). […] (SEQ ID NO: 3). The 144RH probe was labeled with a 5′ fluorescent reporter (6-FAM) and a 3′ fluorescent quencher (Black Hole Quencher). The relative content of human DNA was calculated with using the comparative CT method, CT (sample)-CT(negative control). All samples were run in triplicate and were repeated.

[2] = test system: Raf1; experiment: Western blot of Raf1 phosphorylation in RANKL treated osteoclast cells; type: cell-based, mouse; conditions: 10 μM KBU2046, RANKL treated RAW 267.4 cells, time-dependent
Source text: To examine this paradigm we first evaluated whether KBU2046 would inhibit Raf1 phosphorylation in osteoclasts. After treatment with RANKL, RAW 267.4 cells differentiate into mature osteoclasts. Upon maturation osteoclast become multinucleated, express tartrate resistant acid phosphatase (TRAP), and have the capacity to form actin rings that create an occluded cavity in which bone is degraded. KBU2046 inhibits phosphorylation of Raf1's activation motif in RANKL treated RAW 267.4 osteoclast cells, and does so in a time-dependent manner (FIG. 4A). In osteoclasts Raf1 is known to phosphorylate MEK1/2, in turn phosphorylating ERK1/2 (Bradley et al., J Cell Biochem 104, 1439-1451 (2008)), with the latter acting to stimulate osteoclast differentiation and bone resorptive activity (He et al., PLoS One 6, e24780 (2011); and Nakamura et al., J Bone Miner Res 18, 1198-1205 (2003)).
FIG. 4 represents the KBU2046 inhibition of osteoclast function. FIG. 4A compares effects on Raf1 activation. […] RAW 267.4 cells were plated onto Osteo Assay plates, treated with RANKL for 6 days and with KBU2046 (or vehicle for controls) as indicated and bone surface area quantified. Data are the mean±SEM (N=3 replicates) of bone surface area, expressed as the percentage of control cells; * denotes P<0.05 compared to control. […]

[3] = test system: PC3-M cells; experiment: 7 day colony formation assay, chemotherapy with or without KBU2046; type: cell-based, human
Experimental: To assess the impact of cytotoxic chemotherapy on PCa growth kinetics seven-day soft agar colony formation assays and three-day MTT cell growth inhibition assays were performed as described by us ([…] et al., Cancer Lett 352, 179-186 (2014)). MTT assays were in replicates of N=3, and were repeated, soft agar assays were in replicates of N=2 and are presented as mean number of colonies, expressed as percent of untreated controls. For PC3-M PCa and MDA-MB-231 triple negative breast cancer cells, data are the mean±SD (N=2 replicates) number of colonies in 7 day colony formation assays. All data are expressed as the percentage of untreated control cells. Cells were treated with 10 μM KBU2046 or vehicle (CO), and the indicated concentration and type of chemotherapy.

Structure (SMILES): O=C1c2ccccc2OCC1c1ccc(F)cc1 (stereo not shown) [KBU2046, 3-(4-fluorophenyl)chroman-4-one]
- decrease of tumor weight compared to control ([1]; docetaxel 7.5 mg/kg weekly): no significant effect
- decrease of lung metastasis compared to control (human Alu qPCR) ([1]; docetaxel 7.5 mg/kg weekly intraperitoneal): 20%
- phosphorylation of Raf1's activation motif [2]: inhibits
- effect on activity of adriamycin ([3]; 10 μM KBU2046, PC3-M cells, FIG. 14): does not inhibit
- effect on activity of vinblastine ([3]; 10 μM KBU2046, PC3-M cells, FIG. 16): does not inhibit
- effect on activity of taxol ([3]; 10 μM KBU2046, PC3-M cells, FIG. 18): does not inhibit
- interference upon cytotoxic action of adriamycin, taxol and vinblastine ([3]; KBU2046 co-administered, PC3-M cells): lack of interference
